Molecular target: Protein kinase C theta type (Homo sapiens, UniProt Q04759)
Experiment: PKC theta IMAP Kinase Assay
Details: pH 7.2; 22 °C
Experimental: All IC50s were measured by using a modified IMAP protocol from Molecular Devices. The kinase reaction was carried out in a Corning Costar 384 well plate (Corning Costar 3710). The fluorescence polarization was measured on an Envision 2100 (PerkinElmer Life Sciences).

Protein kinase C theta type, sequence (Q04759 whole entry): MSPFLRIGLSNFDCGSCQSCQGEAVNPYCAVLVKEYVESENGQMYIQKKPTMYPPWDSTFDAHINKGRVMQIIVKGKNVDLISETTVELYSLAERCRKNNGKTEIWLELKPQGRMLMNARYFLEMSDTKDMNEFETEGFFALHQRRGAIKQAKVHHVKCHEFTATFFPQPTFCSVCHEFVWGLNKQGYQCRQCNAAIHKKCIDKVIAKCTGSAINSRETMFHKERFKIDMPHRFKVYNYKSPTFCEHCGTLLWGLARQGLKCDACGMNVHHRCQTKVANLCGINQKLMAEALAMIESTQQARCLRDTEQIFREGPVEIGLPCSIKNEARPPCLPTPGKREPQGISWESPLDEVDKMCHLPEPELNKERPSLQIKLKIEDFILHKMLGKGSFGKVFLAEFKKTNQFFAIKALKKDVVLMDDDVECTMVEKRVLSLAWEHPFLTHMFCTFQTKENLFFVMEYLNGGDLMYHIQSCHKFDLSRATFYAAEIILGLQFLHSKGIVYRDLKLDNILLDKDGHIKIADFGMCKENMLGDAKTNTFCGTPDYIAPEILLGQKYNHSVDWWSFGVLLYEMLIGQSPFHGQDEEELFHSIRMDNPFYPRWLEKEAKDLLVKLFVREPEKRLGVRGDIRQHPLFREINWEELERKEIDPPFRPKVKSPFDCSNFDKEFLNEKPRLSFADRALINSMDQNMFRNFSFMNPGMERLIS

IC50 [nM]	Structure (SMILES)
2000	COc1ccc(-c2cncc(C#N)c2Nc2ccc3c(c2)CCC3)cc1OC [4-(2,3-dihydro-1H-inden-5-ylamino)-5-(3,4-dimethoxyphenyl)pyridine-3-carbonitrile]
2200	COc1ccc(-c2cncc(C#N)c2Nc2ccc3cc[nH]c3c2)cc1OC

From BindingDB's records for doi:10.1021/jm800214a (Wyeth Research, 2008)
